Reference: patent publication US20100204098A1 (priority 2007, published 2010)

Legend:
E. coli = assay type: cell-based, Escherichia coli
F. oxysporum = assay type: cell-based, Fusarium oxysporum
L. maculans = assay type: cell-based, Leptosphaeria maculans
F. graminearum = assay type: cell-based, Fusarium graminearum
M. luteus = assay type: cell-based, Micrococcus luteus
A. rabiei = assay type: cell-based, Ascochyta rabiei

| Substance | concentration at which activity against E. coli was shown (E. coli) [µM] | concentration level at which activity against spores of F. oxysporum was shown (F. oxysporum) [µM] | concentration level at which activity against spores of L. maculans was shown (L. maculans) [µM] | activity against F. graminearum of fractions purified from hemolymph (F. graminearum) | concentration level at which activity against spores of F. graminearum was shown (F. graminearum) [µM] | concentration at which activity against M. luteus was shown (M. luteus) [µM] | activity against spores of F. oxysporum (F. oxysporum) | activity against M. luteus (M. luteus) | activity against E. coli (E. coli) | concentration level at which activity against spores of A. rabiei was shown (A. rabiei) [µM] |
| --- | --- | --- | --- | --- | --- | --- | --- | --- | --- | --- |
| Gm-moricinC3: Moricin-like peptide from Galleria mellonella, SEQ ID NO:5; purified from hemolymph and synthesised by Auspep (KVPIGAIKKGGKIIKKGLGVIGAAGTAHEVYSHVKNRQ; listed as Galleria mellonella) | 100 | 100 | 100 | activity | 10 | 100 |  |  |  |  |
| Gm-moricinC4/C5: Mature Gm-moricinC4 and Gm-moricinC5 from Galleria mellonella, identical mature amino acid sequences (SEQ ID NO:1 and 3), synthesised by Auspep (KVPVGAIKKGGKAIKTGLGVVGAAGTAHEVYSHIRNRH; listed as Galleria mellonella) | 100 |  | 100 |  | 100 |  | no activity | no activity |  |  |
| Gm-moricinD: Moricin-like antifungal peptide from Galleria mellonella, SEQ ID NO:7; purified from hemolymph and synthesised by Auspep (KGIGSALKKGGKIIKGGLGALGAIGTGQQVYEHVQNRQ; listed as Galleria mellonella) |  | 100 | 100 | activity | 10 |  |  | no activity | no activity | 100 |
